Article PMC9574860, “Chemical Toolkit for PARK7: Potent, Selective, and High-Throughput” (Journal of Medicinal Chemistry, 2022)

What was measured:
PARK7 [1] = molecular target: T1, PARK7 (Homo sapiens, UniProt Q99497); test: DiFMUAc PARK7 activity assay; format: biochemical; set-up: GST (N, cleaved yes); made in house; host or cells: E. coli BL21(DE3) Rosetta2; conditions: PARK7 0.1 μM, DiFMUAc 300 μM; for inhibition at 12.5 µM / DiFMuAc assay %Inhibiton (12.5 µM): 12.5 µM compound; for inhibition at 12.5 µM / inhibition at 37.5 µM / inhibition at 100 µM / DiFMuAc assay %Inhibiton (12.5 µM) / DiFMuAc assay %Inhibiton (37.5 µM) / DiFMuAc assay %Inhibiton (100 µM): 2 h preincubation; for inhibition at 12.5 µM: read-out: DiFMuAc assay %Inhibiton (12.5 µM); for inhibition at 37.5 µM / DiFMuAc assay %Inhibiton (37.5 µM): 37.5 µM compound; for inhibition at 37.5 µM: read-out: DiFMuAc assay %Inhibiton (37.5 µM); for inhibition at 100 µM / DiFMuAc assay %Inhibiton (100 µM): 100 µM compound; for inhibition at 100 µM: read-out: DiFMuAc assay %Inhibiton (100 µM)
T1 sequence (Q99497 1-189): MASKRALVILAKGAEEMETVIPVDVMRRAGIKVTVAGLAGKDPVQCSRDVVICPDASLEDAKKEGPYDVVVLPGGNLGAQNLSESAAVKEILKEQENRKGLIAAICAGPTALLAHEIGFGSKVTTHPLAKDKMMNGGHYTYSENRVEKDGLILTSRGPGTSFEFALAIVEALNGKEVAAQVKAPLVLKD
Method: Compounds were transferred using a Labcyte Echo550 acoustic dispenser to obtain a 12-point serial dilution of 0.001 to 100 μM. Next, PARK7 (15 μL, final concentration of 0.1 μM) was dispensed with a Biotek MultiFlowFX liquid dispenser and incubated for 1 h, followed by dispensing the substrate DiFMUAc (5 μL, final concentration of 300 μM). The fluorescence intensity (FI) signal was monitored with a BMG Labtech PHERAstar plate reader (λex/em 350/450 nm) for 1 h.
The validation was performed in the PBS buffer with a reaction volume of 20 μL per well in triplicate. […] Next, PARK7 (15 μL, final concentration 0.1 μM) was dispensed with a Biotek MultiFlowFX liquid dispenser and incubated for 2 h, followed by dispensing the substrate DiFMUAc (5 μL, final concentration 300 μM). The FI signal was monitored with a BMG Labtech PHERAstar plate reader (λex/em 350/450 nm) for 1 h. The increase of FI signal compared with reference controls was used to calculate the remaining enzyme activity. The inhibition percentage of these 22 compounds was plotted as a heatmap using GraphPad Prism 9.0.1 software. Color gradients indicate inhibition percentage, no inhibiton (white) and full inhibition (blue).

PARK7 [2] = molecular target: T1, PARK7; test: FP assay with Rhodamine110 probe JYQ-107 (IC50 and hit validation); format: binding; set-up: GST (N, cleaved yes); made in house; host or cells: E. coli BL21(DE3) Rosetta2; conditions: for inhibition at 12.5 µM: read-out: FP assay %Inhibiton (12.5 µM); for inhibition at 37.5 µM: read-out: FP assay %Inhibiton (37.5 µM); for inhibition at 100 µM: read-out: FP assay %Inhibiton (100 µM)
Method: The assay was performed using the conditions as described above with a reaction volume of 20 μL per well in triplicate. Stock solutions of JYQ-88 of 1 and 0.1 mM were prepared. […] The FP signal was monitored with a BMG Labtech PHERAstar plate reader (λex/em 480/520 nm) for 2 h.
The validation was performed using the conditions as described above with a reaction volume of 20 μL per well in triplicate. […] The FP signal was monitored with a BMG Labtech PHERAstar plate reader (λex/em 480/520 nm) for 2 h. The relative loss of FP signal compared with reference controls was used to calculate the remaining enzyme activity. Inhibition percentage of these 40 compounds was plotted as a heatmap using GraphPad Prism 9.0.1 software. Color gradients indicate inhibition percentage, no inhibiton (white) and full inhibition (blue).

[3] = 12.5 µM compound, PARK7 0.2 μM, 1 h preincubation, JYQ-107 20 nM
[4] = 37.5 µM compound, PARK7 0.2 μM, 1 h preincubation, JYQ-107 20 nM
[5] = 100 µM compound, PARK7 0.2 μM, 1 h preincubation, JYQ-107 20 nM

SMILES | inhibition at 12.5 µM (PARK7 [2]; [3]) [%] | inhibition at 37.5 µM (PARK7 [2]; [4]) [%] | inhibition at 100 µM (PARK7 [2]; [5]) [%] | FP assay %Inhibiton (12.5 µM) (PARK7 [2]; [3]) [%] | FP assay %Inhibiton (37.5 µM) (PARK7 [2]; [4]) [%] | FP assay %Inhibiton (100 µM) (PARK7 [2]; [5]) [%] | further results
O=C(CCl)c1ccc(F)c(C(=O)CCl)c1 [Z2768504793] | 100 | 100 | 100 |  |  |  | inhibition at 12.5 µM (PARK7 [1]): 98%; inhibition at 37.5 µM (PARK7 [1]): 98.5%; inhibition at 100 µM (PARK7 [1]): 95.9%
COc1ccc(NS(=O)(=O)c2ccc(S(=O)(=O)F)cc2)cn1 [Z1672273218] |  |  |  |  |  |  | inhibition at 12.5 µM (PARK7 [2]): 79.5%; inhibition at 37.5 µM (PARK7 [2]): 83.8%; inhibition at 100 µM (PARK7 [2]): 100%
Cc1conc1NS(=O)(=O)c1cccc(S(=O)(=O)F)c1 [Z2509450956] |  |  |  | 100.0 | 100.0 | 100.0 | DiFMuAc assay %Inhibiton (12.5 µM) (PARK7 [1]): 98.5%; DiFMuAc assay %Inhibiton (37.5 µM) (PARK7 [1]): 98.2%; DiFMuAc assay %Inhibiton (100 µM) (PARK7 [1]): 97.5%
O=C(CCl)c1cscn1 [Z2491497305] | 4.5 | 7.6 | 51.6 |  |  |  | 
O=[N+]([O-])c1ccccc1S(=O)(=O)F [Z3223579620] |  |  |  | 100.0 | 100.0 | 100.0 | DiFMuAc assay %Inhibiton (12.5 µM) (PARK7 [1]): 99.2%; DiFMuAc assay %Inhibiton (37.5 µM) (PARK7 [1]): 98.3%; DiFMuAc assay %Inhibiton (100 µM) (PARK7 [1]): 98.2%
CC(C)(C)c1ccc(NC(=O)CCl)cc1 [Z56922153] | 100 | 100 | 100 |  |  |  | inhibition at 12.5 µM (PARK7 [1]): 87.1%; inhibition at 37.5 µM (PARK7 [1]): 94.2%; inhibition at 100 µM (PARK7 [1]): 100%
Cn1c(=O)ccn(CC(=O)Nc2cccc(S(=O)(=O)F)c2)c1=O [Z1713568698] |  |  |  |  |  |  | inhibition at 12.5 µM (PARK7 [2]): 80.3%; inhibition at 37.5 µM (PARK7 [2]): 78.2%; inhibition at 100 µM (PARK7 [2]): 100%
CC1=NOC(=O)C1CC(=O)O (stereo not shown) [Z367451146] | 100 | 100 | 100 |  |  |  | inhibition at 12.5 µM (PARK7 [1]): 92.2%; inhibition at 37.5 µM (PARK7 [1]): 100%; inhibition at 100 µM (PARK7 [1]): 100%
O=[N+]([O-])c1cccc(S(=O)(=O)F)c1 [Z3243697698] |  |  |  | 100.0 | 100.0 | 100.0 | DiFMuAc assay %Inhibiton (12.5 µM) (PARK7 [1]): 100.0%; DiFMuAc assay %Inhibiton (37.5 µM) (PARK7 [1]): 100.0%; DiFMuAc assay %Inhibiton (100 µM) (PARK7 [1]): 100.0%
COC(=O)Nc1ccc(S(=O)(=O)F)cc1[N+](=O)[O-] [Z1741956298] |  |  |  | 72.6 | 75.8 | 100.0 | 
O=C1CCC(CC(=O)Nc2cccc(S(=O)(=O)F)c2)CC1 [Z1832812448] |  |  |  |  |  |  | inhibition at 12.5 µM (PARK7 [2]): 0%; inhibition at 37.5 µM (PARK7 [2]): 0%; inhibition at 100 µM (PARK7 [2]): 0%
O=C1C(=O)N(CCc2ccccc2)c2ccc(F)cc21 [STK793590, reference compound] |  |  |  |  |  |  | IC50 (PARK7 [1]; DiFMUAc assay, 1 h preincubation): 190 nM
CC(c1ccc(Cl)cc1)N(C)C(=O)CCl (stereo not shown) [Z1562123076] | 79.5 | 81.3 | 100 |  |  |  | 
CCc1ccc(NC(=O)CCl)cc1 [Z56886400] | 90.8 | 95.6 | 100 |  |  |  | 
O=C(Nc1cccc(S(=O)(=O)F)c1)C1CCCC1 [Z1713569513] |  |  |  | 67.6 | 76.9 | 100.0 | 
O=C(CCl)Nc1ccc(N2CCCCCC2)cc1 [Z190662892] | 84.2 | 85.1 | 100 |  |  |  | 
